Patent US12365696B2, “Small-molecule focal adhesion kinase (FAK) inhibitors” (DANA-FARBER CANCER INSTITUTE, INC., priority 2019, dated 2025)

What was measured:
Assay in all cases: KINOMEscan
Type in all cases: binding
[1] = target: ABL1(Q252H)-phosphorylated (Homo sapiens (Human), UniProt P00519, Q252H); details: 10000 nM, read-out: Percent Control
AKT2 = AKT2 (Homo sapiens (Human), UniProt P31751); details: AKT2, 10000 nM; read-out: Percent Control
ALK(L1196M) = ALK(L1196M) (Homo sapiens (Human), UniProt Q9UM73, L1196M); details: 10000 nM, read-out: Percent Control
ARK5 = ARK5 (Homo sapiens (Human), UniProt O60285); details: ARK5, 10000 nM; read-out: Percent Control
ASK1 = ASK1 (Homo sapiens (Human), UniProt Q99683); details: ASK1, 10000 nM; read-out: Percent Control
BLK = BLK (Homo sapiens (Human), UniProt P51451); details: 10000 nM, read-out: Percent Control
BMPR1B = BMPR1B (Homo sapiens (Human), UniProt O00238); details: 10000 nM, read-out: Percent Control
BRK = BRK (Homo sapiens (Human), UniProt Q13882); details: 10000 nM, read-out: Percent Control
CAMK2A = CAMK2A (Homo sapiens (Human), UniProt Q9UQM7); details: 10000 nM, read-out: Percent Control
CAMK2B = CAMK2B (Homo sapiens (Human), UniProt Q13554); details: 10000 nM, read-out: Percent Control
CDC2L1 = CDC2L1 (Homo sapiens (Human), UniProt P21127); details: CDC2L1, 10000 nM; read-out: Percent Control
CSNK1G1 = CSNK1G1 (Homo sapiens (Human), UniProt Q9HCP0); details: CSNK1G1, 10000 nM; read-out: Percent Control
FGR = FGR (Homo sapiens (Human), UniProt P09769); details: 10000 nM, read-out: Percent Control
FLT3(ITD, F691L) = details: 10000 nM
GAK = GAK (Homo sapiens (Human), UniProt O14976); details: 10000 nM, read-out: Percent Control
GRK2 = GRK2 (Homo sapiens (Human), UniProt P25098); details: GRK2, 10000 nM; read-out: Percent Control
HIPK3 = HIPK3 (Homo sapiens (Human), UniProt Q9H422); details: HIPK3, 10000 nM; read-out: Percent Control
[2] = target: JAK2(JH1domain-catalytic) (Homo sapiens (Human), UniProt O60674); details: 10000 nM, read-out: Percent Control
LATS1 = LATS1 (Homo sapiens (Human), UniProt O95835); details: LATS1, 10000 nM; read-out: Percent Control
LIMK1 = LIMK1 (Homo sapiens (Human), UniProt P53667); details: LIMK1, 10000 nM; read-out: Percent Control
MARK1 = MARK1 (Homo sapiens (Human), UniProt Q9P0L2); details: MARK1, 10000 nM; read-out: Percent Control
MET = MET (Homo sapiens (Human), UniProt P08581); details: 10000 nM, read-out: Percent Control
NEK2 = NEK2 (Homo sapiens (Human), UniProt P51955); details: NEK2, 10000 nM; read-out: Percent Control
PIK3CA = PIK3CA (Homo sapiens (Human), UniProt P42336); details: 10000 nM, read-out: Percent Control
PIM2 = PIM2 (Homo sapiens (Human), UniProt Q9P1W9); details: PIM2, 10000 nM; read-out: Percent Control
PIP5K2C = PIP5K2C (Homo sapiens (Human), UniProt Q8TBX8); details: 10000 nM, read-out: Percent Control
PKAC-beta = PKAC-beta (Homo sapiens (Human), UniProt P22694); details: 10000 nM, read-out: Percent Control
PRKCI = PRKCI (Homo sapiens (Human), UniProt P41743); details: 10000 nM, read-out: Percent Control
PRKCQ = PRKCQ (Homo sapiens (Human), UniProt Q04759); details: 10000 nM, read-out: Percent Control
RET = RET (Homo sapiens (Human), UniProt P07949); details: 10000 nM, read-out: Percent Control
RET(V804L) = RET(V804L) (Homo sapiens (Human), UniProt P07949, V804L); details: 10000 nM, read-out: Percent Control
[3] = target: RPS6KA5(Kin.Dom.2-C-terminal) (Homo sapiens (Human), UniProt O75582); details: 10000 nM, read-out: Percent Control
[4] = target: RSK4(Kin.Dom.1-N-terminal) (Homo sapiens (Human), UniProt Q9UK32); details: 10000 nM, read-out: Percent Control
SgK110 = SgK110 (Homo sapiens (Human), UniProt P0C264); details: SgK110, 10000 nM; read-out: Percent Control
SRC = SRC (Homo sapiens (Human), UniProt P12931); details: 10000 nM, read-out: Percent Control
TAOK3 = TAOK3 (Homo sapiens (Human), UniProt Q9H2K8); details: TAOK3, 10000 nM; read-out: Percent Control

Sequence of BRK (Q13882 whole entry): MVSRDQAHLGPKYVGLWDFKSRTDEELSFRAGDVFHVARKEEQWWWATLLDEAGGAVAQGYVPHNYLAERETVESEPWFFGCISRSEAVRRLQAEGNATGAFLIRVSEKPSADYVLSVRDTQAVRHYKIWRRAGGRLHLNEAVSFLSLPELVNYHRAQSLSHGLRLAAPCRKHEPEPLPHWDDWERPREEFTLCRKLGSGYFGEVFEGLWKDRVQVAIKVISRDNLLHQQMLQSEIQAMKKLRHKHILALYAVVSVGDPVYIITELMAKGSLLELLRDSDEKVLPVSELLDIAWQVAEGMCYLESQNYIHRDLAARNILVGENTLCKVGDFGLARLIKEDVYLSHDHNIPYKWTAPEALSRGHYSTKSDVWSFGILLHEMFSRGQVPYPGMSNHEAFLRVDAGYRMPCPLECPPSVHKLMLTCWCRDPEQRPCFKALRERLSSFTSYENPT
Sequence of LIMK1 (P53667 whole entry): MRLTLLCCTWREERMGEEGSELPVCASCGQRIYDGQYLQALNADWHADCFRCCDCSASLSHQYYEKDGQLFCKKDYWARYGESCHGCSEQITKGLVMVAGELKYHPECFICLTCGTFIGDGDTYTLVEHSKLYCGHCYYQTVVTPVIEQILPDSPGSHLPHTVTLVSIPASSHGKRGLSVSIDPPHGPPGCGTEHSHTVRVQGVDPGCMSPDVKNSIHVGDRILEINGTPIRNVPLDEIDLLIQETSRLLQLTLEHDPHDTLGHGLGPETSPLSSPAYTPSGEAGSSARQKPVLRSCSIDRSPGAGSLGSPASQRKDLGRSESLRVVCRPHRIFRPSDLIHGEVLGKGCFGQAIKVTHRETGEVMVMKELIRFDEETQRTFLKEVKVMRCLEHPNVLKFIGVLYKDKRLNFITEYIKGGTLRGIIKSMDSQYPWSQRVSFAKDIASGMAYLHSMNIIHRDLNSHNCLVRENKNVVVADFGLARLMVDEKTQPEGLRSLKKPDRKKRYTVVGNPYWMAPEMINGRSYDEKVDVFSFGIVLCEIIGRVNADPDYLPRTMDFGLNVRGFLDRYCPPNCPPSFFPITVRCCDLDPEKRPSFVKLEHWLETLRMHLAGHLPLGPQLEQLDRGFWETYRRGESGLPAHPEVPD
Sequence of RET (P07949 29-1114): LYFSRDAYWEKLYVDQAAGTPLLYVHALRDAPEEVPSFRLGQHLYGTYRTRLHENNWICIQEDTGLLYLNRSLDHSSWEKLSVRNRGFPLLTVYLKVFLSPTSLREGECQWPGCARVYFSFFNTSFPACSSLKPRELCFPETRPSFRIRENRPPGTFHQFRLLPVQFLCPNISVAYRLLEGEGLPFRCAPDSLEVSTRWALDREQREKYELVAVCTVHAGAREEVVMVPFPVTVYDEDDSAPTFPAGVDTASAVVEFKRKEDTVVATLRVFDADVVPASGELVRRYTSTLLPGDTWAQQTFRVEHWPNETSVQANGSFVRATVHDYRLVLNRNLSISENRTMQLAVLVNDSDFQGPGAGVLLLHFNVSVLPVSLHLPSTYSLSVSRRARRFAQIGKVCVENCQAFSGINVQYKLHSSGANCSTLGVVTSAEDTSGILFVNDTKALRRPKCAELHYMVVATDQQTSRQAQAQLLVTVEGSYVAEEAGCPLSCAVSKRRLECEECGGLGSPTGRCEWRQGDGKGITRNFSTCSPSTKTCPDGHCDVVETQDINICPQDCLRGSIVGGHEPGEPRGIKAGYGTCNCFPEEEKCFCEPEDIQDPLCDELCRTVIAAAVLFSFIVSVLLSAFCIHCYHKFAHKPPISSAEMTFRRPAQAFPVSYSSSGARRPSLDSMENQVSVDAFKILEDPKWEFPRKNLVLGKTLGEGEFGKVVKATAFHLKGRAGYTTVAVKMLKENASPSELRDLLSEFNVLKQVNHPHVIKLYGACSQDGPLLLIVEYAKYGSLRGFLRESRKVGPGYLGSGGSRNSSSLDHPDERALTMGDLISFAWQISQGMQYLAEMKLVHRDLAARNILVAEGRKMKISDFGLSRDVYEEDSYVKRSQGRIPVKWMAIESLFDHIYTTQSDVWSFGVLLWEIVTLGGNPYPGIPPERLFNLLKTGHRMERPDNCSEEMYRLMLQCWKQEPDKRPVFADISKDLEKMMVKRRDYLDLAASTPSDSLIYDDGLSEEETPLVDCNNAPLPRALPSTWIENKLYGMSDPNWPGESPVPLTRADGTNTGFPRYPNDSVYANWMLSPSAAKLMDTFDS
Sequence of LATS1 (O95835 whole entry): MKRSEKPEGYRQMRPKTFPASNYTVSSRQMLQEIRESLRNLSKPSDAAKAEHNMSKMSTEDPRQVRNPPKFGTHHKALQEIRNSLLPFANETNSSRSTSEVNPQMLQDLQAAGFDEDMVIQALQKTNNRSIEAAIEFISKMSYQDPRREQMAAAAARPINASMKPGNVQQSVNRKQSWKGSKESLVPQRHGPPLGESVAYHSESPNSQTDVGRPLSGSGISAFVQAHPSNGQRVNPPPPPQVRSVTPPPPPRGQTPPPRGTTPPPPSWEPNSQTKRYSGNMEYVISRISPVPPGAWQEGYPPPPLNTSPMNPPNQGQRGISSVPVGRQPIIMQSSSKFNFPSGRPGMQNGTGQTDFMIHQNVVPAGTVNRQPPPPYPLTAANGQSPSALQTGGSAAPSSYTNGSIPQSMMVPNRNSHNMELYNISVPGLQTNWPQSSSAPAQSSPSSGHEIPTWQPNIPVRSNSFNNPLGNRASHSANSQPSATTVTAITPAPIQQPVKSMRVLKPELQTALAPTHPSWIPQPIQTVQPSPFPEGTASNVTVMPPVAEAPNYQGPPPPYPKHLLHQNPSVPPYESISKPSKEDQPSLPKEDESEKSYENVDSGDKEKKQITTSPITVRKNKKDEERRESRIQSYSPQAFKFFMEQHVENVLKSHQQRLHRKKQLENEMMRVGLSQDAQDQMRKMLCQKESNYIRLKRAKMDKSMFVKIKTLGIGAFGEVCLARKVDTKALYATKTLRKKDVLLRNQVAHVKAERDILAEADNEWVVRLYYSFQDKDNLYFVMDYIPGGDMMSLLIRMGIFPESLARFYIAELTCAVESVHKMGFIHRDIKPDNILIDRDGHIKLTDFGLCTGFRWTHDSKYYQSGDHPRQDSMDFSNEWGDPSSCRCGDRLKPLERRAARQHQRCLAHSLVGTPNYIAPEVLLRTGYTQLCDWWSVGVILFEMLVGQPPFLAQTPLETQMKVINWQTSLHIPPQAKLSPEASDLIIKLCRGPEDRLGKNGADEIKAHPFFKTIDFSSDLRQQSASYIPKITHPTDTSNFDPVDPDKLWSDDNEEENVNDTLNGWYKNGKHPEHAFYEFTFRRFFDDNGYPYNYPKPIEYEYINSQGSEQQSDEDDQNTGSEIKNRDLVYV
Sequence of PRKCQ (Q04759 whole entry): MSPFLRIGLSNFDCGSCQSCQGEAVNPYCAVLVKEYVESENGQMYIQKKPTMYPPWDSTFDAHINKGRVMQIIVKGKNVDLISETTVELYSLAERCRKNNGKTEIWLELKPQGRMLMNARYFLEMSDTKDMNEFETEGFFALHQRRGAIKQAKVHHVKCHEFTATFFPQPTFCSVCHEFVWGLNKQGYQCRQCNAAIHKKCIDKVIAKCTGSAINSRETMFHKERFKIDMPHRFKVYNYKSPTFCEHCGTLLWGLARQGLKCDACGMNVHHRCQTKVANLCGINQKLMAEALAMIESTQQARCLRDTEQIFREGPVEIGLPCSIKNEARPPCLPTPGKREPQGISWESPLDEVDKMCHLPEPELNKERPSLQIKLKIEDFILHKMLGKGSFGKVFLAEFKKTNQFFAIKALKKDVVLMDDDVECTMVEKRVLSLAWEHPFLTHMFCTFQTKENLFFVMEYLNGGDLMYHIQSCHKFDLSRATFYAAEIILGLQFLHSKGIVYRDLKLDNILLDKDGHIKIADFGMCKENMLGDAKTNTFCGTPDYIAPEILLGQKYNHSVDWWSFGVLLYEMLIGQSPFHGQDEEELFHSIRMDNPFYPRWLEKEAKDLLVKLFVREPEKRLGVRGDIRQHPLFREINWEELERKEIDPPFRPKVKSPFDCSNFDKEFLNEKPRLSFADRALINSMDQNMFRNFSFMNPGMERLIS
Sequence of BLK (P51451 whole entry): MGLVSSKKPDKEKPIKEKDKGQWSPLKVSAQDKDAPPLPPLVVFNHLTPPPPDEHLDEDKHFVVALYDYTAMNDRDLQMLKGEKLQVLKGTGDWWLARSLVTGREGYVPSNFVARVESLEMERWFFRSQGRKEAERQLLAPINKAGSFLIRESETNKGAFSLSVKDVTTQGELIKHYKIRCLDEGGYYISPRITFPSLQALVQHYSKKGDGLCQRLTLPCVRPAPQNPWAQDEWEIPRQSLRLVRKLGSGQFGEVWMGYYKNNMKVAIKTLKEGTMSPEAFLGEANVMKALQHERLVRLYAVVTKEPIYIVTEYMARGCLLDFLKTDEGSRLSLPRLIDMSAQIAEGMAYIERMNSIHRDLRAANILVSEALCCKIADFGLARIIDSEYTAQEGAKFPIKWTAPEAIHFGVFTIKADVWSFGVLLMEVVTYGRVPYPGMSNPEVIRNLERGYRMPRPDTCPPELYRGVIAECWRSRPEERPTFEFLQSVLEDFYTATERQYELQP
Sequence of RPS6KA5(Kin.Dom.2-C-terminal) (O75582 426-687): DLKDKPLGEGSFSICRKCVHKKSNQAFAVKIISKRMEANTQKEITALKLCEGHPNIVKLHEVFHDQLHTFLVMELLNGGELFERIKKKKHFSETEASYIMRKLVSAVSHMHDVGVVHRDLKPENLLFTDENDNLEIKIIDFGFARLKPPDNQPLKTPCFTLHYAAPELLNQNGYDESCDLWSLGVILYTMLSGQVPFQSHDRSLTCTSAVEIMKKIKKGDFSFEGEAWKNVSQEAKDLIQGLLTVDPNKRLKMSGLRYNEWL
Sequence of RSK4(Kin.Dom.1-N-terminal) (Q9UK32 73-330): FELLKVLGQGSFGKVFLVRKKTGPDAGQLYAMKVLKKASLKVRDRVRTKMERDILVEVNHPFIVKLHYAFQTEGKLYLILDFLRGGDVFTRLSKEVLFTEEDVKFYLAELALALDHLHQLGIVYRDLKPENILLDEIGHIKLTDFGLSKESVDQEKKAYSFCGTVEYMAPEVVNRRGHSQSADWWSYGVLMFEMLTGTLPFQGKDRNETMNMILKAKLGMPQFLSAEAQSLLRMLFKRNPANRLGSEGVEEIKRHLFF

## COc1cc(N2CCC(N3CCN(C)CC3)CC2)ccc1Nc1ncc2c(n1)N(C)c1sc(C)nc1C(=O)N2 [Compound 3, 6-((2-methoxy-4-(4-(4-methylpiperazin-1-yl)piperidin-1-yl)phenyl)amino)-2,4-dimethyl-4,9-dihydro-10H-pyrimido[5,4-b]thiazolo[5,4-e][1,4]diazepin-10-one]
[1]
  remaining binding at 10 µM: 9.7%
AKT2
  remaining binding at 10 µM: 75%
ALK(L1196M)
  remaining binding at 10 µM: 80%
ARK5
  remaining binding at 10 µM: 86%
ASK1
  remaining binding at 10 µM: 74%
BLK
  remaining binding at 10 µM: 55%
BMPR1B
  remaining binding at 10 µM: 88%
BRK
  remaining binding at 10 µM: 66%
CAMK2A
  remaining binding at 10 µM: 76%
CAMK2B
  remaining binding at 10 µM: 81%
CDC2L1
  remaining binding at 10 µM: 74%
CSNK1G1
  remaining binding at 10 µM: 86%
FGR
  remaining binding at 10 µM: 77%
FLT3(ITD, F691L)
  Percent Control: 100%
GAK
  remaining binding at 10 µM: 4.2%
GRK2
  remaining binding at 10 µM: 100%
HIPK3
  remaining binding at 10 µM: 100%
[2]
  remaining binding at 10 µM: 100%
LATS1
  remaining binding at 10 µM: 77%
LIMK1
  remaining binding at 10 µM: 96%
MARK1
  remaining binding at 10 µM: 87%
MET
  remaining binding at 10 µM: 92%
NEK2
  remaining binding at 10 µM: 84%
PIK3CA
  remaining binding at 10 µM: 100%
PIM2
  remaining binding at 10 µM: 92%
PIP5K2C
  remaining binding at 10 µM: 86%
PKAC-beta
  remaining binding at 10 µM: 82%
PRKCI
  remaining binding at 10 µM: 73%
PRKCQ
  remaining binding at 10 µM: 89%
RET
  remaining binding at 10 µM: 99%
RET(V804L)
  remaining binding at 10 µM: 95%
[3]
  remaining binding at 10 µM: 72%
[4]
  remaining binding at 10 µM: 100%
SgK110
  remaining binding at 10 µM: 86%
SRC
  remaining binding at 10 µM: 63%
TAOK3
  remaining binding at 10 µM: 100%

## COc1cc(N2CCC(N3CCN(C)CC3)CC2)ccc1Nc1ncc2c(n1)N(C)c1sc(C)nc1C(=O)N2C [Compound 5, 6-((2-methoxy-4-(4-(4-methylpiperazin-1-yl)piperidin-1-yl)phenyl)amino)-2,4,9-trimethyl-4,9-dihydro-10H-pyrimido[5,4-b]thiazolo[5,4-e][1,4]diazepin-10-one]
[1]
  remaining binding at 10 µM: 100%
AKT2
  remaining binding at 10 µM: 100%
ALK(L1196M)
  remaining binding at 10 µM: 79%
ARK5
  remaining binding at 10 µM: 94%
ASK1
  remaining binding at 10 µM: 88%
BLK
  remaining binding at 10 µM: 95%
BMPR1B
  remaining binding at 10 µM: 94%
BRK
  remaining binding at 10 µM: 100%
CAMK2A
  remaining binding at 10 µM: 100%
CAMK2B
  remaining binding at 10 µM: 93%
CDC2L1
  remaining binding at 10 µM: 100%
CSNK1G1
  remaining binding at 10 µM: 97%
FGR
  remaining binding at 10 µM: 100%
FLT3(ITD, F691L)
  Percent Control: 93%
GAK
  remaining binding at 10 µM: 31%
GRK2
  remaining binding at 10 µM: 100%
HIPK3
  remaining binding at 10 µM: 100%
[2]
  remaining binding at 10 µM: 99%
LATS1
  remaining binding at 10 µM: 50%
LIMK1
  remaining binding at 10 µM: 95%
MARK1
  remaining binding at 10 µM: 89%
MET
  remaining binding at 10 µM: 97%
NEK2
  remaining binding at 10 µM: 100%
PIK3CA
  remaining binding at 10 µM: 100%
PIM2
  remaining binding at 10 µM: 100%
PIP5K2C
  remaining binding at 10 µM: 75%
PKAC-beta
  remaining binding at 10 µM: 100%
PRKCI
  remaining binding at 10 µM: 97%
PRKCQ
  remaining binding at 10 µM: 88%
RET
  remaining binding at 10 µM: 100%
RET(V804L)
  remaining binding at 10 µM: 93%
[3]
  remaining binding at 10 µM: 63%
[4]
  remaining binding at 10 µM: 91%
SgK110
  remaining binding at 10 µM: 92%
SRC
  remaining binding at 10 µM: 100%
TAOK3
  remaining binding at 10 µM: 77%
